Source: patent US8476298B2 (Exelixis, Inc., priority 2003, dated 2013)

How the values were obtained:
[1] = target: T1, KDR (baculovirus expressed human KDR kinase domain D807-V1356) (Homo sapiens, UniProt P35968); experiment: biochemical;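 also: Luciferase-coupled chemiluminescent kinase assay, activity read as percent ATP left after 4 h reaction at ambient temperature, ATP near KM, 10-point dose-response in 384-well plates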
T1 construct: human KDR kinase domain D807-V1356; host or cells: baculovirus expression
T1 sequence (P35968 807-1356): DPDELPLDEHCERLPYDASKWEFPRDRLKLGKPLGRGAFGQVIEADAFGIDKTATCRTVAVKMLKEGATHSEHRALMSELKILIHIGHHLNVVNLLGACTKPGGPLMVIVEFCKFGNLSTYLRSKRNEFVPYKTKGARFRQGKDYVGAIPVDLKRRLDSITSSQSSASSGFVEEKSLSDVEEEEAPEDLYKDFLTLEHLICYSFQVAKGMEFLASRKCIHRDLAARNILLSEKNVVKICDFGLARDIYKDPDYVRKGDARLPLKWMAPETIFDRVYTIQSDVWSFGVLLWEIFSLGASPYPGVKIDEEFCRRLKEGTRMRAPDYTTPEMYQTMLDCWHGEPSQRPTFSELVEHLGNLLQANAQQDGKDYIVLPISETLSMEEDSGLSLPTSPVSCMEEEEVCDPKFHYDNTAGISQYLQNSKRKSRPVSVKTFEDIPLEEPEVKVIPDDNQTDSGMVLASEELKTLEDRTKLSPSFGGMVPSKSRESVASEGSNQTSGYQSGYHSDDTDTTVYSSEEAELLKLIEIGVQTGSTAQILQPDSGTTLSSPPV

[2] = target: T2, c-Met (baculovirus expressed human c-Met kinase domain P948-S1343) (Homo sapiens, UniProt P08581); experiment: c-Met Luciferase-Coupled Chemiluminescent Kinase assay (LCCA); assay type: biochemical;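 also: kinase activity read as percent ATP left after reaction, by luciferase-luciferin chemiluminescence, with 1 µM ATP and 1 µM poly-EY substrate, 2 h at ambient temperature, 10-point dose-response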
T2 construct: human c-Met kinase domain P948-S1343; host or cells: baculovirus expression
T2 sequence (P08581 1011-1343 limits assumed): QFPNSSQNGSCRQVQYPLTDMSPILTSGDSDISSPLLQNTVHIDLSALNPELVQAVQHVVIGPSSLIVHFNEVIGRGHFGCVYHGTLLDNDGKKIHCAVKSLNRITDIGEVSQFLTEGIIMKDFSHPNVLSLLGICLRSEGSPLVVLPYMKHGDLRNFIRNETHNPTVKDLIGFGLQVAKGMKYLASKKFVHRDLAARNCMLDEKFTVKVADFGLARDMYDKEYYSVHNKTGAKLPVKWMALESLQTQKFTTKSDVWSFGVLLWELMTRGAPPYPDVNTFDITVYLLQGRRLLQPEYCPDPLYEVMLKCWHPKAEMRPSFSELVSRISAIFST

c-Kit kinase = c-Kit kinase (Homo sapiens, UniProt P10721); experiment: c-Kit AlphaScreen kinase assay; assay type: biochemical;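 also: c-Kit kinase phosphorylating biotinylated poly(Glu,Tyr), ATP near its KM, 1 h reaction at ambient temperature, AlphaScreen chemiluminescence with streptavidin donor and anti-phosphotyrosine acceptor beads, 10-point inhibitor titration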
Chain of c-Kit kinase (P10721 26-976): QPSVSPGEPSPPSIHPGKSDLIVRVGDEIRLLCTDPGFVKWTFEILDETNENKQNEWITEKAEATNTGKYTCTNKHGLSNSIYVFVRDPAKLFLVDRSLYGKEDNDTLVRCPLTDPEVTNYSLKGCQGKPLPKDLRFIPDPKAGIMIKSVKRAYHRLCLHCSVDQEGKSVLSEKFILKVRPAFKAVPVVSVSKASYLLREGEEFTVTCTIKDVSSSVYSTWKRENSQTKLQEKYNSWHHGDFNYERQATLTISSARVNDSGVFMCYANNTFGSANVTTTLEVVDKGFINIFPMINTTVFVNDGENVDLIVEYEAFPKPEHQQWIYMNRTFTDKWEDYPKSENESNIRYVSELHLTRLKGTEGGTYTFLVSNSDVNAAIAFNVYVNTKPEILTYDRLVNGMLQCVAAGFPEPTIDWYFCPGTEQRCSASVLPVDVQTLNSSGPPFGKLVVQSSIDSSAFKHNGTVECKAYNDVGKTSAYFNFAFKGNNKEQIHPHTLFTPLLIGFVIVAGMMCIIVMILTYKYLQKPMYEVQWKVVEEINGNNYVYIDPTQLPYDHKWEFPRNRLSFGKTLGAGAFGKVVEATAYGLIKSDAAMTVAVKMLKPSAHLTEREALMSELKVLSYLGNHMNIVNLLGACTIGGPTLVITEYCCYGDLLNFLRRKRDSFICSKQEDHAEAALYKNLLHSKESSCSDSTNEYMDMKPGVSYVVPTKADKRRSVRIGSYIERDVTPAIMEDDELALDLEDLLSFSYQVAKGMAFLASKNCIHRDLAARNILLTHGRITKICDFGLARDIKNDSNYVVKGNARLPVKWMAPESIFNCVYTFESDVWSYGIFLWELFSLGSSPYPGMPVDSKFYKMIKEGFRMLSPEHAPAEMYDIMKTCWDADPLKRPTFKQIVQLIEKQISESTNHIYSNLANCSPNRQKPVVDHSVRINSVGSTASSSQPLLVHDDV

[3] = target: T3, Flt-4 (baculovirus expressed human Flt-4 kinase domain D725-R1298) (Homo sapiens, UniProt P35916); experiment: flt-4 Alphascreen Tyrosine Kinase assay; assay type: biochemical; settings: read-out: flt4 IC50;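 also: AlphaScreen chemiluminescence read-out of biotinylated poly(Glu,Tyr) 4:1 phosphorylation via streptavidin donor and PY100 anti-phosphotyrosine acceptor beads, ATP near KM, 1 hr kinase reaction, 10-point dose-response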
T3 construct: human Flt-4 kinase domain D725-R1298; host or cells: baculovirus expression
T3 sequence (P35916 725-1298 isoform P35916-1): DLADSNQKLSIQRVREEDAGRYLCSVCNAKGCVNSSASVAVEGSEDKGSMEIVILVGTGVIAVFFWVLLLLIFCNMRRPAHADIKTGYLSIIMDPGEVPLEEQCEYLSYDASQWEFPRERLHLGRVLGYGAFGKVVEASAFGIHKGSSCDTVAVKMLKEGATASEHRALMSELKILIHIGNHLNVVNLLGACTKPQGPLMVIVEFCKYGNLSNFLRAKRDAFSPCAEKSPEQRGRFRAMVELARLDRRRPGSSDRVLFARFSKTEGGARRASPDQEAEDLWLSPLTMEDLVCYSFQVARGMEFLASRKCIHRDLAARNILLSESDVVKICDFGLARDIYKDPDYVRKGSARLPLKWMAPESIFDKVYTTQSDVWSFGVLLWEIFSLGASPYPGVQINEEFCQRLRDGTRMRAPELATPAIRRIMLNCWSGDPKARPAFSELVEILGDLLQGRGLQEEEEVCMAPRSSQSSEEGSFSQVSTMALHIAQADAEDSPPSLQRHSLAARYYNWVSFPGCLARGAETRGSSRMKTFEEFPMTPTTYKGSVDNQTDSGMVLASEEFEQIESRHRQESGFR
Experimental: Kinase activity and compound inhibition are investigated using one or more of the three assay formats described below. The ATP concentrations for each assay are selected to be close to the Michaelis-Menten constant (KM) for each individual kinase. Dose-response experiments are performed at 10 different inhibitor concentrations in a 384-well plate format. […] Typically H is close to unity. c-Met Assay
Biochemical activity for flt-4 was assessed using an Alphascreen Tyrosine Kinase protocol. AlphaScreen™ (Perkin Elmer) technology is a proximity assay employing microparticles. Singlet oxygen derived from a donor bead following laser excitation results in chemiluminescence when in proximity (100 Å) to an acceptor bead due to biomolecular interactions. For the Flt-4 assay, donor beads coated with streptavidin and acceptor beads coated with PY100 anti-phosphotyrosine antibody were used (Perkin Elmer). Biotinylated poly(Glu,Tyr) 4:1 (Perkin Elmer) was used as the substrate. Substrate phosphorylation was measured by addition of donor/acceptor beads by chemiluminescence following donor-acceptor bead complex formation. […] Reaction mixtures were incubated for 1 hr at ambient temperature. […] After 2-16 hr incubation at ambient temperature plates were read using an AlphaQuest reader (Perkin Elmer).

[4] = target: T4, Flt-3 (baculovirus expressed human Flt-3 kinase domain R571-S993) (Homo sapiens, UniProt P36888); experiment: biochemical; settings: read-out: flt3 IC50;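 also: Luciferase-coupled chemiluminescent kinase assay, activity read as percent ATP left after a 3 h reaction at room temperature, ATP near KM, 10-point dose-response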
T4 construct: human Flt-3 kinase domain R571-S993; host or cells: baculovirus expression
T4 sequence (P36888 571-993): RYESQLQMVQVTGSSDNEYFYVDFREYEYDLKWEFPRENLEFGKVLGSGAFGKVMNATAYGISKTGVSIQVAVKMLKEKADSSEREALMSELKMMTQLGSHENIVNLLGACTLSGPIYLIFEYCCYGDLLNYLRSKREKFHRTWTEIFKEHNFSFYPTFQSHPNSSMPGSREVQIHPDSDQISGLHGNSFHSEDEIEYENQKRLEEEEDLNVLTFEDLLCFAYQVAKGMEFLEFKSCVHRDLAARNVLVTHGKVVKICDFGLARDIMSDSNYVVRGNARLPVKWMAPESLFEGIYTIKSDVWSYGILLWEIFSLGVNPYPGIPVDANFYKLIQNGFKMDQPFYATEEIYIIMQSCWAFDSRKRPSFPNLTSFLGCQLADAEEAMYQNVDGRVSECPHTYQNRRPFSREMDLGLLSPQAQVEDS

Molecule COc1cc2nccc(Oc3ccc(NC(=O)CC(=O)Nc4ccc(F)cc4)cc3)c2cc1OC [Example 288, N-(4-{[6,7-bis(methyloxy)quinolin-4-yl]oxy}phenyl)-N′-(4-fluorophenyl)propanediamide] has an IC50 [1] of less than 50 nM, an IC50 [2] of less than 50 nM and an IC50 (c-Kit kinase) of less than 50 nM. It also gave an IC50 [3] of less than 50 nM and an IC50 [4] of less than 50 nM.
Molecule COc1cc2nccc(Oc3ncc(NC(=O)CC(=O)Nc4ccccc4)cc3Cl)c2cc1OC [Example 291, N-(6-{[6,7-bis(methyloxy)quinolin-4-yl]oxy}-5-chloropyridin-3-yl)-N′-phenylpropanediamide] has an IC50 [1] of 500 to 5000 nM, an IC50 [2] of less than 50 nM and an IC50 (c-Kit kinase) of 50 to 500 nM. It also gave an IC50 [3] of 500 to 5000 nM and an IC50 [4] of less than 50 nM.
For COc1cc2nccc(Oc3ncc(NC(=O)C(C)(C)C(=O)Nc4ccc(F)cc4)cc3Cl)c2cc1OC [Example 292, N-(6-{[6,7-bis(methyloxy)quinolin-4-yl]oxy}-5-chloropyridin-3-yl)-N′-(4-fluorophenyl)-2,2-dimethylpropanediamide], the IC50 [1] was 50 to 500 nM, the IC50 [2] was 50 to 500 nM and the IC50 (c-Kit kinase) was 50 to 500 nM. For the same molecule, the IC50 [3] was 50 to 500 nM and the IC50 [4] was less than 50 nM.
CCNC(=O)C(=O)Nc1ccc(Oc2ccnc3cc(OCC4CCNCC4)c(OC)cc23)c(F)c1 [Example 293, N-ethyl-N′-[3-fluoro-4-({6-(methyloxy)-7-[(piperidin-4-ylmethyl)oxy]quinolin-4-yl}oxy)phenyl]ethanediamide] showed an IC50 [1] of 50 to 500 nM, an IC50 [2] of less than 50 nM and an IC50 (c-Kit kinase) of 50 to 500 nM. For the same molecule, the IC50 [3] was 50 to 500 nM and the IC50 [4] was 50 to 500 nM.
COc1cc2c(Oc3ccc(NC(=O)C(=O)NC(C)C)cc3F)ccnc2cc1OCC1CCNCC1 [Example 294, N-[3-fluoro-4-({6-(methyloxy)-7-[(piperidin-4-ylmethyl)oxy]quinolin-4-yl}oxy)phenyl]-N′-(1-methylethyl)ethanediamide] showed an IC50 [1] of 50 to 500 nM, an IC50 [2] of less than 50 nM and an IC50 (c-Kit kinase) of 50 to 500 nM. For the same molecule, the IC50 [3] was 500 to 5000 nM and the IC50 [4] was 50 to 500 nM.
CCCCNC(=O)C(=O)Nc1ccc(Oc2ccnc3cc(OCC4CCNCC4)c(OC)cc23)c(F)c1 [Example 295, N-butyl-N′-[3-fluoro-4-({6-(methyloxy)-7-[(piperidin-4-ylmethyl)oxy]quinolin-4-yl}oxy)phenyl]ethanediamide] showed an IC50 [1] of 50 to 500 nM, an IC50 [2] of less than 50 nM and an IC50 (c-Kit kinase) of 50 to 500 nM. For the same molecule, the IC50 [3] was 50 to 500 nM and the IC50 [4] was 50 to 500 nM.
In the case of COCCNC(=O)C(=O)Nc1ccc(Oc2ccnc3cc(OCC4CCNCC4)c(OC)cc23)c(F)c1 [Example 296, N-[3-fluoro-4-({6-(methyloxy)-7-[(piperidin-4-ylmethyl)oxy]quinolin-4-yl}oxy)phenyl]-N′-[2-(methyloxy)ethyl]ethanediamide], the IC50 [1] is reported as 50 to 500 nM, the IC50 [2] is reported as 50 to 500 nM and the IC50 (c-Kit kinase) is reported as 50 to 500 nM. For the same molecule, the IC50 [3] was 500 to 5000 nM and the IC50 [4] was 50 to 500 nM.
With COc1cc2c(Oc3ccc(NC(=O)C(=O)NCC4CC4)cc3F)ccnc2cc1OCC1CCNCC1 [Example 297, N-(cyclopropylmethyl)-N′-[3-fluoro-4-({6-(methyloxy)-7-[(piperidin-4-ylmethyl)oxy]quinolin-4-yl}oxy)phenyl]ethanediamide] the IC50 [1] was 50 to 500 nM, the IC50 [2] was less than 50 nM and the IC50 (c-Kit kinase) was 50 to 500 nM. It also gave an IC50 [3] of 50 to 500 nM and an IC50 [4] of 50 to 500 nM.
Work on COc1cc2c(Oc3ccc(NC(=O)C(=O)NCCN4CCOCC4)cc3F)ccnc2cc1OCC1CCNCC1 [Example 298, N-[3-fluoro-4-({6-(methyloxy)-7-[(piperidin-4-ylmethyl)oxy]quinolin-4-yl}oxy)phenyl]-N′-(2-morpholin-4-ylethyl)ethanediamide] yielded an IC50 [1] of less than 50 nM, an IC50 [2] of 50 to 500 nM and an IC50 (c-Kit kinase) of 50 to 500 nM. The IC50 [3] was 50 to 500 nM and the IC50 [4] was less than 50 nM.
With COc1cc2c(Oc3ccc(NC(=O)C(=O)N4CCCC4)cc3F)ccnc2cc1OCC1CCNCC1 [Example 299, N-[3-fluoro-4-({6-(methyloxy)-7-[(piperidin-4-ylmethyl)oxy]quinolin-4-yl}oxy)phenyl]-2-oxo-2-pyrrolidin-1-ylacetamide] the IC50 [1] was 50 to 500 nM, the IC50 [2] was less than 50 nM and the IC50 (c-Kit kinase) was 50 to 500 nM. For the same molecule, the IC50 [3] was 50 to 500 nM and the IC50 [4] was 50 to 500 nM.
Work on CCN(C)C(=O)C(=O)Nc1ccc(Oc2ccnc3cc(OCC4CCNCC4)c(OC)cc23)c(F)c1 [Example 300, N-ethyl-N′-[3-fluoro-4-({6-(methyloxy)-7-[(piperidin-4-ylmethyl)oxy]quinolin-4-yl}oxy)phenyl]-N-methylethanediamide] yielded an IC50 [1] of 50 to 500 nM, an IC50 [2] of less than 50 nM and an IC50 (c-Kit kinase) of 500 to 5000 nM. For the same molecule, the IC50 [3] was 50 to 500 nM and the IC50 [4] was 50 to 500 nM.
COc1cc2nccc(Oc3ncc(NC(=O)C4(C(=O)NCc5ccccc5)CC4)cc3Cl)c2cc1OC [Example 301, N-(6-{[6,7-bis(methyloxy)quinolin-4-yl]oxy}-5-chloropyridin-3-yl)-N′-(phenylmethyl)cyclopropane-1,1-dicarboxamide] gave an IC50 [1] of 500 to 5000 nM, an IC50 [2] of less than 50 nM and an IC50 (c-Kit kinase) of 50 to 500 nM. For the same molecule, the IC50 [3] was 50 to 500 nM and the IC50 [4] was 50 to 500 nM.
Molecule O=C(Nc1ccc(F)cc1)C1(C(=O)Nc2ccc(Oc3ccnc4cc(Cl)ccc34)c(F)c2)CC1 [Example 303, N-{4-[(7-chloroquinolin-4-yl)oxy]-3-fluorophenyl}-N′-(4-fluorophenyl)cyclopropane-1,1-dicarboxamide] has an IC50 [1] of less than 50 nM, an IC50 [2] of less than 50 nM and an IC50 (c-Kit kinase) of 500 to 5000 nM. The IC50 [3] was 50 to 500 nM and the IC50 [4] was 500 to 5000 nM.
CCN(CC)CCOc1cc2nccc(Oc3ccc(NC(=O)C4(C(=O)Nc5ccc(F)cc5)CC4)cc3F)c2cc1OC [Example 304, N-(4-{[7-{[2-(diethylamino)ethyl]oxy}-6-(methyloxy)quinolin-4-yl]oxy}-3-fluorophenyl)-N′-(4-fluorophenyl)cyclopropane-1,1-dicarboxamide] was tested, and the IC50 [1] was less than 50 nM, the IC50 [2] was less than 50 nM and the IC50 (c-Kit kinase) was less than 50 nM. For the same molecule, the IC50 [3] was less than 50 nM and the IC50 [4] was less than 50 nM.
COc1cc2nccc(Oc3ccc(NC(=O)C4(C(=O)Nc5ccc(F)cc5)CC4)c(C)n3)c2cc1OC [Example 306, N-(6-{[6,7-bis(methyloxy)quinolin-4-yl]oxy}-2-methylpyridin-3-yl)-N′-(4-fluorophenyl)cyclopropane-1,1-dicarboxamide] was tested, and the IC50 [1] was 50 to 500 nM, the IC50 [2] was less than 50 nM and the IC50 (c-Kit kinase) was 50 to 500 nM. The IC50 [3] was 50 to 500 nM and the IC50 [4] was 500 to 5000 nM.
CCN(CC)CCOc1cc2nccc(Oc3ccc(NC(=O)C4(C(=O)Nc5ccc(F)cc5)CCC4)cc3F)c2cc1OC [Example 307, N-(4-{[7-{[2-(diethylamino)ethyl]oxy}-6-(methyloxy)quinolin-4-yl]oxy}-3-fluorophenyl)-N′-(4-fluorophenyl)cyclobutane-1,1-dicarboxamide] showed an IC50 [1] of less than 50 nM, an IC50 [2] of less than 50 nM and an IC50 (c-Kit kinase) of less than 50 nM. For the same molecule, the IC50 [3] was less than 50 nM and the IC50 [4] was 50 to 500 nM.
O=C(Nc1ccc(F)cc1)C1(C(=O)Nc2ccc(Oc3ccnc4cc(Cl)ccc34)cc2)CC1 [Example 308, N-{4-[(7-chloroquinolin-4-yl)oxy]phenyl}-N′-(4-fluorophenyl)cyclopropane-1,1-dicarboxamide] was tested, and the IC50 [1] was less than 50 nM, the IC50 [2] was less than 50 nM and the IC50 (c-Kit kinase) was 50 to 500 nM. It also gave an IC50 [3] of 50 to 500 nM and an IC50 [4] of 500 to 5000 nM.
Work on COc1cc2c(Oc3ncc(NC(=O)C4(C(=O)Nc5ccc(F)cc5)CC4)cc3Cl)ccnc2cc1OCc1ccccc1 [Example 309, N-[5-chloro-6-({6-(methyloxy)-7-[(phenylmethyl)oxy]quinolin-4-yl}oxy)pyridin-3-yl]-N′-(4-fluorophenyl)cyclopropane-1,1-dicarboxamide] yielded an IC50 [1] of 500 to 5000 nM, an IC50 [2] of less than 50 nM and an IC50 (c-Kit kinase) of 500 to 5000 nM. It also gave an IC50 [3] of 500 to 5000 nM and an IC50 [4] of 50 to 500 nM.
Work on COc1cc2ncnc(Oc3ccc(NC(=O)C4(C(=O)Nc5ccc(F)cc5)CC4)cc3)c2cc1OC [Example 310, N-(4-{[6,7-bis(methyloxy)quinazolin-4-yl]oxy}phenyl)-N′-(4-fluorophenyl)cyclopropane-1,1-dicarboxamide] yielded an IC50 [1] of less than 50 nM, an IC50 [2] of less than 50 nM and an IC50 (c-Kit kinase) of less than 50 nM. The IC50 [3] was less than 50 nM and the IC50 [4] was less than 50 nM.
With COc1cc2ncnc(Oc3ccc(NC(=O)C4(C(=O)Nc5ccc(F)cc5)CC4)cc3F)c2cc1OC [Example 311, N-(4-{[6,7-bis(methyloxy)quinazolin-4-yl]oxy}-3-fluorophenyl)-N′-(4-fluorophenyl)cyclopropane-1,1-dicarboxamide] the IC50 [1] was less than 50 nM, the IC50 [2] was less than 50 nM and the IC50 (c-Kit kinase) was 50 to 500 nM. The IC50 [3] was less than 50 nM and the IC50 [4] was less than 50 nM.
For COc1cc2c(Oc3ccc(NC(=O)C4(C(=O)Nc5ccc(F)cc5)CC4)cc3F)ccnc2cc1OCCCN1CCCCC1 [Example 313, N-[3-fluoro-4-({6-(methyloxy)-7-[(3-piperidin-1-ylpropyl)oxy]quinolin-4-yl}oxy)phenyl]-N′-(4-fluorophenyl)cyclopropane-1,1-dicarboxamide], the IC50 [1] was less than 50 nM, the IC50 [2] was less than 50 nM and the IC50 (c-Kit kinase) was less than 50 nM. For the same molecule, the IC50 [3] was less than 50 nM and the IC50 [4] was less than 50 nM.
